Experimental data reported in EP0218359A1, “Conditioning natural gas streams with preferential physical solvents” (EL PASO HYDROCARBONS COMPANY, priority 1985, dated 1987).

Tests used:
Type in all cases: physicochemical
[1] = relative volatility of methane over ethane in the presence of the solvent
Excerpt: (§1) The preferential factor for physical solvent selection for the Mehra Process is defined as a product of relative volatility of methane over ethane multiplied by the solubility of ethane in physical solvents, specified as normal cubic meters of ethane per cubic meter of solvent.

[2] = solubility of hydrocarbons in the solvent (hydrocarbon loading capacity); conditions: normal cubic meters of gaseous hydrocarbons per cubic meter of the solvent
Excerpt: as §1

[3] = preferential factor (relative volatility of methane over ethane multiplied by solubility of ethane in solvent); conditions: relative volatility of methane over ethane x solubility of ethane in solvent
Excerpt: The preferential physical solvents are defined for the purposes of this invention as having a minimum relative volatility of methane over ethane of at least 5.0 (thereby defining its improved selectivity toward ethane over methane) and in addition a solubility of at least 1.77 normal cubic meters of gaseous hydrocarbons per cubic meter of the solvent (Nm^3/m^3) (thereby defining its hydrocarbon loading capacity), or, alternatively, a preferential factor of at least 8.85. The preferential factor for physical solvent selection for the Mehra Process is defined as a product of relative volatility of methane over ethane multiplied by the solubility of ethane in physical solvents, specified as normal cubic meters of ethane per cubic meter of solvent. […] This combination of minimum relative volatility and minimum solubility enables solvent flow rate variations and operating pressure and temperature variations to be selectively 'utilized in the Mehra Process for flexibly producing liquid products having selected hydrocarbon compositions.
Relative Volatilities of Ethane/Methane, Solubilities of Ethane in Solvent, and combined Preferential Factors are given in the following Table II for NMP, DMF, a common lean oil, the minimum solvent having desired requirements for Mehra Process applications, DMPEG, mesitylene, and the ideal solvent in the Mehra Process. […]

Compound	relative volatility for methane with respect to ethane [1]	solubility of hydrocarbons [2]	preferential factor [3]
dimethyl ether of polyethylene glycol [DMPEG]	6.4	7.0 Nm^3/m^3	45
CN1CCCC1=O [NMP, N-methyl pyrrolidone]	5.3	0.2 Nm^3/m^3	1.1
